Test results taken from ChEMBL document CHEMBL1133228, “Synthesis and PTP1B inhibition of novel 4-aryl-1-oxa-9-thiacyclopenta[b]fluorenes” (Bioorg Med Chem Lett, 2000).
pIC50: −log10 of the molar value.

Assays:
[1] = system: Mus musculus; assay: Reduction in insulin-induced protein tyrosine phosphorylation in liver of ob/ob mice at 10 mg/kg perorally; type: functional; conditions: route oral
[2] = target: T1, Tyrosine-protein phosphatase non-receptor type 1 (Homo sapiens, UniProt P18031); assay: Compound was evaluated for the inhibitory activity against recombinant Protein-tyrosine phosphatase 1B using, phosphotyrosyl dodecapeptide [TRDI(P)YETD(P)Y(P)YRK] as substrate
T1 sequence (P18031 whole entry): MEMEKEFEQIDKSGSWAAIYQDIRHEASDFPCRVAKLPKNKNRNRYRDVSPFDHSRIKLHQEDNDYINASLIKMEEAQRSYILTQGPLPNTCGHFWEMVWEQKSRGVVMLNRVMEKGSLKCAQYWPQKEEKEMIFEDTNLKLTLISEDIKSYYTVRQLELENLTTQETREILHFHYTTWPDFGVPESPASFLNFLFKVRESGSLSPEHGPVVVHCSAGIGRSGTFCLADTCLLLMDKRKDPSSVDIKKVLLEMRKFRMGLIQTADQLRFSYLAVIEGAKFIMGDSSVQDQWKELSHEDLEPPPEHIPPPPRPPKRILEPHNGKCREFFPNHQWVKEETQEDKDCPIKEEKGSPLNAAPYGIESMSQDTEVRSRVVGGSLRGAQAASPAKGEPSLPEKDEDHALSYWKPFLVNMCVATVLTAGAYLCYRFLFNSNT

[3] = system: Mus musculus; assay: Reduction in insulin-induced protein tyrosine phosphorylation in liver of ob/ob mice at 25 mg/kg perorally; type: functional; conditions: route oral

Row | SMILES | Insulin lowering effect [1] [%] | pIC50 [2] | Insulin lowering effect [3] [%]
1 | Cc1oc2cc3sc4ccccc4c3c(-c3cc(I)c(O[C@H](Cc4ccccc4)C(=O)O)c(I)c3)c2c1C | 43 | – | –
2 | O=C(O)[C@@H](Cc1ccccc1)Oc1c(I)cc(-c2c3ccccc3cc3sc4ccccc4c23)cc1I | – | 6.75 | 68
